Measurements: patent publication US12295937B2, “Psychoactive medicines and their use for treating psychiatric and neurological conditions and disorders” (Transcend Therapeutics, Inc., priority 2021, dated 2025)

How the values were obtained:
[1] = target: serotonin transporter (SERT) (Rattus norvegicus, UniProt P31652); experiment: [3H]5HT uptake saturation in rat brain synaptosomes with or without methylone; assay type: biochemical; conditions: Kd right shifted, no decrease in Bmax
NET = NET (Rattus norvegicus, UniProt Q63380); experiment: [3H]NE release from rat brain synaptosomes; assay type: biochemical; design: from tissue; synaptosomes for uptake and release; conditions: rat brain synaptosomes; read-out: Neurotransmitter release: EC50
Method: Test compounds and synaptosomes were prepared as described for uptake inhibition assays. Synaptosomes treated with [^3H]5-HT, [^3H]DA or [^3H]NE were loaded onto filter chambers containing GF/C filters and placed in a superfusion system. Oxygenated Krebs buffer was perfused through the chambers at a rate of 1.5 mL/minute at 35° C. using either an 8-channel or a 12-channel peristaltic pump. Trapped air bubbles were removed from the filters prior to collecting fractions to ensure an even flow over the synaptosomal bed. After a superfusion period of 45 minutes, 2 basal fractions were collected followed by 6 fractions following the addition of the test drug. […] Scintillation cocktail was added, and the filters counted to determine residual radioactivity. Drug-evoked release of neurotransmitter was calculated by subtracting the average of the two basal fractions (collected prior to the drug addition), from the four fractions collected in the presence of drug. The drug-evoked release was then expressed as a percentage of the basal release. Potassium-evoked release was calculated by subtracting the average of two fractions collected prior to the addition of high KCl buffer from that in the two fractions following addition of high KCl buffer. Potassium-stimulated release was calculated as a percentage of basal release. […]

[2] = Rat plasma pharmacokinetics by administration route; assay type: in vivo; conditions: male, SD
Text: Plasma was collected 0.25, 0.5, 1-, 2-, 4-, and 8-hours post-dose.

168 GPCRs [3] = target: 168 GPCRs (Homo sapiens, UniProt O43603); experiment: β-arrestin GPCR screen (PathHunter / GPCRmax), antagonist mode; conditions: GALR2, Antagonist mode, 10 uM
168 GPCRs [4] = target: 168 GPCRs (Homo sapiens, UniProt P30556); experiment: as above
168 GPCRs [5] = target: 168 GPCRs (Homo sapiens, UniProt P30411); experiment: as above; conditions: BDKRB2, Antagonist mode, 10 uM
168 GPCRs [6] = target: 168 GPCRs (Homo sapiens, UniProt P32248); experiment: as above; conditions: CCR7, Antagonist mode, 10 uM
168 GPCRs [7] = target: 168 GPCRs (Homo sapiens, UniProt P43088); experiment: as above; conditions: PTGFR, Antagonist mode, 10 uM
168 GPCRs [8] = target: 168 GPCRs (Homo sapiens, UniProt P30874); experiment: as above; conditions: SSTR2; Antagonist; 1 uM
168 GPCRs [9] = target: 168 GPCRs (Homo sapiens, UniProt Q16581); experiment: as above; conditions: C3AR1, Antagonist mode, 10 uM
168 GPCRs [10] = target: 168 GPCRs (Homo sapiens, UniProt P49190); experiment: as above
168 GPCRs [11] = target: 168 GPCRs (Homo sapiens, UniProt Q16602); experiment: as above; conditions: CALCRL-RAMP2, Antagonist mode, 10 uM
168 GPCRs [12] = target: 168 GPCRs (Homo sapiens, UniProt P08588); experiment: as above; conditions: ADRB1, Antagonist mode, 10 uM
168 GPCRs [13] = target: 168 GPCRs (Homo sapiens, UniProt P51685); experiment: as above; conditions: CCR8, Antagonist mode, 10 uM
168 GPCRs [14] = target: 168 GPCRs (Homo sapiens, UniProt Q8TDS5); experiment: as above; conditions: OXER1; Antagonist; 1 uM
Sequence of 168 GPCRs (Homo sapiens, UniProt Q8TDS5) (Q8TDS5 whole entry): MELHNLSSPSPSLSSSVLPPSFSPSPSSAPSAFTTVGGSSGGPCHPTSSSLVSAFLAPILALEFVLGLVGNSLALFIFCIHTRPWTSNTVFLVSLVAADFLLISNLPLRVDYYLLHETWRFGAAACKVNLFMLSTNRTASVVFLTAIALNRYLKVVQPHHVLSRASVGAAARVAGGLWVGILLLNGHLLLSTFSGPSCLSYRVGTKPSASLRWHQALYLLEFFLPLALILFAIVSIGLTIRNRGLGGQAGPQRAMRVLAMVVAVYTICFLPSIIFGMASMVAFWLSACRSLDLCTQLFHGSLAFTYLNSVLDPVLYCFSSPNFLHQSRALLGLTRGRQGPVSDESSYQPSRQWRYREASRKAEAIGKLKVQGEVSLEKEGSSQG

Sequence of 168 GPCRs (Homo sapiens, UniProt P30556) (P30556 whole entry): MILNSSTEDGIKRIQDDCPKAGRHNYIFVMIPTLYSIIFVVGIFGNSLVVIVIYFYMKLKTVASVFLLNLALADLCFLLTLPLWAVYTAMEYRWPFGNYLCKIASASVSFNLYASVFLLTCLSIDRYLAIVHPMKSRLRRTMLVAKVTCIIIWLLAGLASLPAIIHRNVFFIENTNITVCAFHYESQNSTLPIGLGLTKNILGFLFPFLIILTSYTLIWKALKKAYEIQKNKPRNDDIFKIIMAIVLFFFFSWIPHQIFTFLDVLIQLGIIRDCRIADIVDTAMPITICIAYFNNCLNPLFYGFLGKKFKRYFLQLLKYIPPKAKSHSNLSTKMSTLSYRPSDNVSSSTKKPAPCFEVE
Sequence of 168 GPCRs (Homo sapiens, UniProt P49190) (P49190 25-550): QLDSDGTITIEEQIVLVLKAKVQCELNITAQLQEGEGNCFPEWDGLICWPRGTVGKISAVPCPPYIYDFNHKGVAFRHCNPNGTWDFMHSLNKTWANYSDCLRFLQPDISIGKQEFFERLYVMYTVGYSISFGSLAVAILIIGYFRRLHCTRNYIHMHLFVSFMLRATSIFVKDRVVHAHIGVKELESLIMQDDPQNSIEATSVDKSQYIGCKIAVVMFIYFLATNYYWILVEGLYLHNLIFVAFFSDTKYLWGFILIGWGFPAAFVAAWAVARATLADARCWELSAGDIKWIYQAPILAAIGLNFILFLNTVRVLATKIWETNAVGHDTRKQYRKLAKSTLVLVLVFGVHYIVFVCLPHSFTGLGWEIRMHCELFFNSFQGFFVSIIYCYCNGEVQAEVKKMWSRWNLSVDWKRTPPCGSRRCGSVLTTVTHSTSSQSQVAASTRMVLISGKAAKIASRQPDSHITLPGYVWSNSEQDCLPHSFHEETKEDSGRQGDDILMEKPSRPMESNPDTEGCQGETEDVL
Sequence of 168 GPCRs (Homo sapiens, UniProt Q16581) (Q16581 whole entry): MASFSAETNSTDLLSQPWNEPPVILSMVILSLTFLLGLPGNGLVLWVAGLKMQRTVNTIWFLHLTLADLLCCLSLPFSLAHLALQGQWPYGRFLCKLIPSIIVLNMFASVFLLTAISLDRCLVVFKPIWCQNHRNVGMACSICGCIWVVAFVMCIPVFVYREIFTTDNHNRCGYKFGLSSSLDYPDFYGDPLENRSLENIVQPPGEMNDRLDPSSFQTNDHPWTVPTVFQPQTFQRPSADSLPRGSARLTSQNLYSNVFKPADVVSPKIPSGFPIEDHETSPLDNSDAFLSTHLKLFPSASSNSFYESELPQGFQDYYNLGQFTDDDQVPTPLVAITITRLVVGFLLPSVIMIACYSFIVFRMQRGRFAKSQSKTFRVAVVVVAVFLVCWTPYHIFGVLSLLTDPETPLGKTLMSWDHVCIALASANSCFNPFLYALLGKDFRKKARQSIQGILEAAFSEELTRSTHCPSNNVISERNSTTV
Sequence of 168 GPCRs (Homo sapiens, UniProt P32248) (P32248 25-378): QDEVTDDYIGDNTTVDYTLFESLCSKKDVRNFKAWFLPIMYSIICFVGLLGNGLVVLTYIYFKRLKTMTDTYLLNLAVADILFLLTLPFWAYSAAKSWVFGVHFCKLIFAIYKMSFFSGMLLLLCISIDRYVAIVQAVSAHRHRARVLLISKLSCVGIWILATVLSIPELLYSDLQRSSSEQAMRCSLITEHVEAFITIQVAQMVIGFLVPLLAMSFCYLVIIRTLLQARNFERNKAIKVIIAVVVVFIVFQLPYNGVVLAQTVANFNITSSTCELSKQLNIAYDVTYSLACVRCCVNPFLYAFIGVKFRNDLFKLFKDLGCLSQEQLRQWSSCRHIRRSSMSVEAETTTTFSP
Sequence of serotonin transporter (SERT) (P31652 whole entry): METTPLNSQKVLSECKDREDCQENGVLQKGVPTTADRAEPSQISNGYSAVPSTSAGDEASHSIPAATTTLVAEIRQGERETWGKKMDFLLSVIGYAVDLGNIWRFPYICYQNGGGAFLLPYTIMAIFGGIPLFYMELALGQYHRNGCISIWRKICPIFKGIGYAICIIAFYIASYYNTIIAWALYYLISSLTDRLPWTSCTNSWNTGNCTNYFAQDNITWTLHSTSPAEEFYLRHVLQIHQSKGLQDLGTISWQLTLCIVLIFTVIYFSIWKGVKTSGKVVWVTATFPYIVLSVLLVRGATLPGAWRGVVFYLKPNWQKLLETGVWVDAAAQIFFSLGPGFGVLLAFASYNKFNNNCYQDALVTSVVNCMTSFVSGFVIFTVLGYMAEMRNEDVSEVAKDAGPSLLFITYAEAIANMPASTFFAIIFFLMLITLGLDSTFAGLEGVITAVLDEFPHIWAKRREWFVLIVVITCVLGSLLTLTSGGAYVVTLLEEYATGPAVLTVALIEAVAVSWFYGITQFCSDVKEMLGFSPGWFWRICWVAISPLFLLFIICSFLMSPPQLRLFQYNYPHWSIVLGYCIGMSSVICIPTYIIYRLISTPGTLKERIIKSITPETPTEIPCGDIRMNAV
Sequence of 168 GPCRs (Homo sapiens, UniProt P43088) (P43088 whole entry): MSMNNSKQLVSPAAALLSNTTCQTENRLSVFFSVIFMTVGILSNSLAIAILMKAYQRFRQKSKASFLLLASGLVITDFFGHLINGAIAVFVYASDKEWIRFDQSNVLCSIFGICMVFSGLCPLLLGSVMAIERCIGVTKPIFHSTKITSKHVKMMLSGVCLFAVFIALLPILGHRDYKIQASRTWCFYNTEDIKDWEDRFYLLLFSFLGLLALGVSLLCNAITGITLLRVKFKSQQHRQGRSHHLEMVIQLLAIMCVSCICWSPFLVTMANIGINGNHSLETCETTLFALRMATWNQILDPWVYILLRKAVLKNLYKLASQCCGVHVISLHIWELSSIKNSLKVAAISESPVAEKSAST
Sequence of NET (Q63380 1-617): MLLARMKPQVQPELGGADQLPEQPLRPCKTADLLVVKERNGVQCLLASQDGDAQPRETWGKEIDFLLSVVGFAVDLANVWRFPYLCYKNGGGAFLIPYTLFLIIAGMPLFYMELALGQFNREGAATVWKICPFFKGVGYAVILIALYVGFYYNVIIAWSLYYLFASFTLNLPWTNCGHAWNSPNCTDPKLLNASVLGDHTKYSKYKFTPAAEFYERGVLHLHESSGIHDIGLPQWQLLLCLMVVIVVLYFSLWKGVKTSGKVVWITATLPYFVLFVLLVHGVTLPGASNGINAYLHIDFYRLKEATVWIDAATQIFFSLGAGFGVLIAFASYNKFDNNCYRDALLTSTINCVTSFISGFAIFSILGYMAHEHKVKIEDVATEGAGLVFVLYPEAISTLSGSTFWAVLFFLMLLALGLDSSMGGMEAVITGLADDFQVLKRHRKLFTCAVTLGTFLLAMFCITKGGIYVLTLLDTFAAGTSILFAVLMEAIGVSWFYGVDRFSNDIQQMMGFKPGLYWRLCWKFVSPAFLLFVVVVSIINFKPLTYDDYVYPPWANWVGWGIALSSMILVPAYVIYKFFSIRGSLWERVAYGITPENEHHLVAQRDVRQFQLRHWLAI
Sequence of 168 GPCRs (Homo sapiens, UniProt P08588) (P08588 whole entry): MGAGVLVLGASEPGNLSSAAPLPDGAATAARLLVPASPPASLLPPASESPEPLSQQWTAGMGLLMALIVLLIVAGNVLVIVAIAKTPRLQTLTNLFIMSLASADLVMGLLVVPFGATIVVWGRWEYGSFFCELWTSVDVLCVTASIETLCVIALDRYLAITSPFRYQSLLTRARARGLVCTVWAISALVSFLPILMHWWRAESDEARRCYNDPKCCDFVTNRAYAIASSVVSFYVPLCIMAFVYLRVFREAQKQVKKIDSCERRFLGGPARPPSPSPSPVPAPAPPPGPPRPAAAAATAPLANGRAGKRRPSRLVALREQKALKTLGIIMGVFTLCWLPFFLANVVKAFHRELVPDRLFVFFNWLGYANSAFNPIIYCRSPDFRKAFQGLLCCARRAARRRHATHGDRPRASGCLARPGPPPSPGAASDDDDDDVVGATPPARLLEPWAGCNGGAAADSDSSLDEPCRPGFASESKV
Sequence of 168 GPCRs (Homo sapiens, UniProt P51685) (P51685 whole entry): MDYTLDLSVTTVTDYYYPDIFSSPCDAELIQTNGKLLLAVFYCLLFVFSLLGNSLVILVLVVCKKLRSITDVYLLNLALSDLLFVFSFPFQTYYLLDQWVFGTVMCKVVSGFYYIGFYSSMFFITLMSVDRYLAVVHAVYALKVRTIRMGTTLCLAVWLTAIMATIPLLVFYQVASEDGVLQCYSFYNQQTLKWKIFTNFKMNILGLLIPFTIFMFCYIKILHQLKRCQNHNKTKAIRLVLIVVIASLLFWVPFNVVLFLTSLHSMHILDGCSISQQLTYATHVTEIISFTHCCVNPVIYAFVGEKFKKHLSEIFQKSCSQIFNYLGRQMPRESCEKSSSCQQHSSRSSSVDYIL
Sequence of 168 GPCRs (Homo sapiens, UniProt P30874) (P30874 whole entry): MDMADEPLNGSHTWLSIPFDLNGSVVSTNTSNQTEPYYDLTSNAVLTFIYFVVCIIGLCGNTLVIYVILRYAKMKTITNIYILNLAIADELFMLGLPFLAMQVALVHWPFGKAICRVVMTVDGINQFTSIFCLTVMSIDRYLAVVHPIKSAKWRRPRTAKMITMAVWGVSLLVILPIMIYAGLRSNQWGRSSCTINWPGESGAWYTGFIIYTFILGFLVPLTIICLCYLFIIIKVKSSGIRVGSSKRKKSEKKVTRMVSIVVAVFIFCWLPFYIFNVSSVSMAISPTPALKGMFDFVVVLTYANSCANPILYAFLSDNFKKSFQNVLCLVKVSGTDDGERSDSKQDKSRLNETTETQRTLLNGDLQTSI

Question: What does the source list for `CNC(C)C(=O)c1ccc2c(c1)OCO2` (stereo not shown) [Methylone, 3,4-methylenedioxy-N-methylcathinone]?
Answer: Type of interaction at the SERT [1]: competitive; EC50 (NET): 0.33 µM; AUC(0-inf) ([2]; IM 15 mg/kg): 4610 ng·h/mL; Cmax ([2]; IM 15 mg/kg): 5400 ng/mL; half-life ([2]; IM 15 mg/kg): 44.4 min; AUC(0-inf) ([2]; IM 20 mg/kg): 6370 ng·h/mL; Cmax ([2]; IM 20 mg/kg): 5920 ng/mL; half-life ([2]; IM 20 mg/kg): 42 min; AUC(0-inf) ([2]; IP 15 mg/kg): 2590 ng·h/mL; Cmax ([2]; IP 15 mg/kg): 1250 ng/mL; half-life ([2]; IP 15 mg/kg): 56.1 min; AUC(0-inf) ([2]; PO 15 mg/kg): 2290 ng·h/mL; Cmax ([2]; PO 15 mg/kg): 552 ng/mL; half-life ([2]; PO 15 mg/kg): 136 min; AUC(0-inf) ([2]; SC 15 mg/kg): 4330 ng·h/mL; Cmax ([2]; SC 15 mg/kg): 3650 ng/mL; half-life ([2]; SC 15 mg/kg): 49.2 min; AUC(0-inf) ([2]; SC 20 mg/kg): 5960 ng·h/mL; Cmax ([2]; SC 20 mg/kg): 4320 ng/mL; half-life ([2]; SC 20 mg/kg): 52.2 min; % Activity (168 GPCRs [3]): 1.5%; % Activity (168 GPCRs [4]; AGTR1, Antagonist mode, 10 uM): −1.4%; % Activity (168 GPCRs [4]; AGTR1, Antagonist, 1 uM): 3.3%; % Activity (168 GPCRs [5]): −2.6%; % Activity (168 GPCRs [6]): −3.4%; % Activity (168 GPCRs [7]): 0%; % Activity (168 GPCRs [8]): −0.4%; % Activity (168 GPCRs [9]): 0.3%; % Activity (168 GPCRs [10]; PTHR2, Antagonist mode, 10 uM): −0.2%; % Activity (168 GPCRs [10]; PTHR2, Antagonist, 1 uM): −1%; % Activity (168 GPCRs [11]): 7%; % Activity (168 GPCRs [12]): −1.2%; % Activity (168 GPCRs [13]): −0.3%; % Activity (168 GPCRs [14]): 2.9%
